Results from US11878973B2, “Bicyclic compounds and their uses” (NOVARTIS AG, priority 2021, dated 2024).

Experiments:
[1] = test system: SW48 xenografts; conditions: 240 mg/kg qd oral
[2] = test system: DLD1-WRN-KO cells; test: Proliferation assay DLD1-WRN-KO (CellTiterGlo, 96 hours; off-target effects); conditions: Homo sapiens, read-out: Proliferation Assay DLD1-WRN-KO (GI50)
[3] = biological target: WRN helicase (Homo sapiens (Human), UniProt Q14191); test: In vitro enzymatic activity assay on WRN helicase (DNA dependent ATPase assay, ADP-Glo); type: biochemical; conditions: geometric means of at least 2 determinations; read-out: WRN ATPase Activity (IC50)
How it was run: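 DNA-dependent ATPase activity was measured by ADP-Glo luminescent ADP detection after a 30-min room-temperature reaction. The reaction contained 10 nM WRN (residues N517-P1238), 0.2 nM FLAP26 and 300 µM ATP at pH 7.5 with 2 mM MgCl2. Compounds were tested as 10-point half-log series in duplicate; IC50 values are geometric means from at least two independent experiments.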

[4] = test system: SW48 cells; test: Proliferation assay SW48 (CellTiterGlo, 96 hours); conditions: Homo sapiens, SW48, read-out: Proliferation Assay SW48 (GI50)
Description: The WRN-knockdown insensitive colon carcinoma cell line DLD-1 (RRID: CVCL_0248) was obtained from the Korean Cell Line Bank (KCLB), and used to generate a derivative in which the endogenous WRN gene copies were knocked out by CRISPR-mediated editing using standard CRISPR methods. The resulting cell line, DLD1-WRN—KO, was used to assess potential off-target compound effects.
All cells were maintained at 37° C. in a humidified 5% CO2 incubator.
For data analysis, the assay background signal that was determined in wells containing medium, but no cells, was subtracted from all other data points prior to further calculations. The extent of growth inhibition and potential cell kill was assessed by comparing the ATP levels (measured using CellTiterGlo, Promega) in compound-treated cells with those present at the time of compound addition. […] 100%, 0% and −100% signify absence of growth inhibition, growth stasis, and complete cell kill, respectively. Compound concentrations leading to half-maximal growth inhibition (G150) and residual cell viability at the highest tested compound concentration (Data (cmax), expressed in percent) were routinely calculated. Data analysis can also be carried out using commercially available software designed to derive IC50 values using 4-parameter fits (e.g. GraphPad Prism, XL fit). The reported GI50 values are the geometrical means of at least 2 independent replicates.

Sequence of WRN helicase (Q14191 517-1238): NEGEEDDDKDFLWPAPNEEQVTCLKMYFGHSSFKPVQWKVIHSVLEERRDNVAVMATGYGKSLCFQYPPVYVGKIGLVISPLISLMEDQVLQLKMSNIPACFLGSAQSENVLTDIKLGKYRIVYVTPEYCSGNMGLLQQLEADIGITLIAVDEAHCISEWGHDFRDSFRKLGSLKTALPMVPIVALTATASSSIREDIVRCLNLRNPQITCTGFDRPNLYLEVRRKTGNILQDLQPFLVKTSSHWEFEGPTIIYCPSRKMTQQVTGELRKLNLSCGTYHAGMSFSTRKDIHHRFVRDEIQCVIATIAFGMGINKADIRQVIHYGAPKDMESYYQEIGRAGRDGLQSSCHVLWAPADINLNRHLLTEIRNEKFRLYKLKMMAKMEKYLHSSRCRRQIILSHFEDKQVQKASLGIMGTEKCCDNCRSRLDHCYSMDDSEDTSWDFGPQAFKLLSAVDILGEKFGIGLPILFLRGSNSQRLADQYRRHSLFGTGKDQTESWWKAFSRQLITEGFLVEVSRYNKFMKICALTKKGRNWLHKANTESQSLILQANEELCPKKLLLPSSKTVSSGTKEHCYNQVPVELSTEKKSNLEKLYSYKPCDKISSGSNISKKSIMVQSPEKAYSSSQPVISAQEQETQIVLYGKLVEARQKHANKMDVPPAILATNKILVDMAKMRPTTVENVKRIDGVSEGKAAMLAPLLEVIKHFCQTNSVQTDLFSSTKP

Compound | antitumor response ([1]; SW48 xenografts in nude mice) | T/C % value ([1]; day 18, SW48 xenografts in nude mice, p<0.05 vs vehicle) | tumor regression (mean tumor volume) ([1]; day 18, in the 4/7 surviving animals) | GI50 [2] | IC50 [3] | GI50 [4]
CCc1c(N2CCN(C(=O)c3ncccc3O)CC2)c(=O)n2nc(C3=CCOCC3)nc2n1CC(=O)Nc1ccc(C(F)(F)F)cc1C [Example 58, 2-(2-(3,6-dihydro-2H-pyran-4-yl)-5-ethyl-6-(4-(3-hydroxypicolinoyl)piperazin-1-yl)-7-oxo-[1,2,4]triazolo[1,5-a]pyrimidin-4(7H)-yl)-N-(2-methyl-4-(trifluoromethyl)phenyl)acetamide] | induced an antitumor response | −9% | −26% | – | – | –
CCc1c(N2CCN(C(=O)c3ncccc3O)CC2)c(=O)n2nc(C3=CCN(CC(F)F)CC3)nc2n1CC(=O)Nc1ccc(C(F)(F)F)cc1C [Example 115, 2-(2-(1-(2,2-difluoroethyl)-1,2,3,6-tetrahydropyridin-4-yl)-5-ethyl-6-(4-(3-hydroxypicolinoyl)piperazin-1-yl)-7-oxo-[1,2,4]triazolo[1,5-a]pyrimidin-4(7H)-yl)-N-(2-methyl-4-(trifluoromethyl)phenyl)acetamide] | – | – | – | > 10000 nM | 170 nM | 200 nM
CCc1c(N2CCN(C(=O)c3ncccc3O)CC2)c(=O)n2nc(C3=CCCCO3)nc2n1CC(=O)Nc1ccc(C(F)(F)F)nc1C [Example 55, 2-(2-(3,4-dihydro-2H-pyran-6-yl)-5-ethyl-6-(4-(3-hydroxypicolinoyl)piperazin-1-yl)-7-oxo-[1,2,4]triazolo[1,5-a]pyrimidin-4(7H)-yl)-N-(2-methyl-6-(trifluoromethyl)pyridin-3-yl)acetamide] | – | – | – | > 10000 nM | 200 nM | 100 nM
Cc1c(N2CCN(C(=O)c3ncccc3O)CC2)c(=O)n2nc(N3CC4CC(C3)O4)nc2n1CC(=O)Nc1ccc(C(F)(F)F)cc1F [Example 22, 2-(2-(6-oxa-3-azabicyclo[3.1.1]heptan-3-yl)-6-(4-(3-hydroxypicolinoyl)piperazin-1-yl)-5-methyl-7-oxo-[1,2,4]triazolo[1,5-a]pyrimidin-4(7H)-yl)-N-(2-fluoro-4-(trifluoromethyl)phenyl)acetamide] | – | – | – | > 10000 nM | 600 nM | 2630 nM
CCc1c(N2CCN(C(=O)c3ncccc3O)CC2)c(=O)n2nc(C3=CCOCC3)nc2n1CC(=O)Nc1cnc(C(F)(F)F)cc1C [Example 34, 2-(2-(3,6-dihydro-2H-pyran-4-yl)-5-ethyl-6-(4-(3-hydroxypicolinoyl)piperazin-1-yl)-7-oxo-[1,2,4]triazolo[1,5-a]pyrimidin-4(7H)-yl)-N-(4-methyl-6-(trifluoromethyl)pyridin-3-yl)acetamide] | – | – | – | > 10000 nM | 250 nM | 280 nM
CCc1c(N2CCN(C(=O)c3ncccc3O)[C@H](C)C2)c(=O)n2nc(C3=CCOCC3)nc2n1CC(=O)Nc1ccc(C(F)(F)F)cc1 [Example 71, (R)-2-(2-(3,6-dihydro-2H-pyran-4-yl)-5-ethyl-6-(4-(3-hydroxypicolinoyl)-3-methylpiperazin-1-yl)-7-oxo-[1,2,4]triazolo[1,5-a]pyrimidin-4(7H)-yl)-N-(4-(trifluoromethyl)phenyl)acetamide] | – | – | – | > 10000 nM | 70 nM | 60 nM
